PubChem BioAssay AID1745844 (Carcinogenic Potency Database (CPDB), 2022)
Activity calls are given as the source filed them. No rule for the calls is given here.

System: rodent lifetime carcinogenesis bioassay, tumor incidence TD50
Test: carcinogenic potency in animals, long-term in vivo studies, CPDB compilation (AID 1745844)

## Brc1c(Br)c(Br)c(Oc2c(Br)c(Br)c(Br)c(Br)c2Br)c(Br)c1Br
mouse, strain B6C3F1, females, in feed, site: any site (literature study), lesion: several types, types named in the paper, dosed 103 weeks, study length 103 weeks
  carcinogen call: negative (inactive)
mouse, strain B6C3F1, females, in feed, site: liver, lesion: hepatocellular adenoma + hepatocellular carcinoma + neoplastic nodule, dosed 103 weeks, study length 103 weeks
  TD50: 33400 mg/kg/day
mouse, strain B6C3F1, males, in feed, site: any site (literature study), lesion: several types, types named in the paper, dosed 103 weeks, study length 103 weeks
  TD50: 9060 mg/kg/day
mouse, strain B6C3F1, males, in feed, site: liver, lesion: hepatocellular adenoma + hepatocellular carcinoma + neoplastic nodule, dosed 103 weeks, study length 103 weeks
  TD50: 11200 mg/kg/day
mouse, strain B6C3F1, males, in feed, site: liver, lesion: hepatocellular adenoma + hepatocellular carcinoma, dosed 103 weeks, study length 103 weeks
  TD50: 11200 mg/kg/day
mouse, strain B6C3F1, males, in feed, site: thyroid gland, lesion: follicular-cell adenoma + follicular-cell carcinoma, dosed 103 weeks, study length 103 weeks
  TD50: 20500 mg/kg/day
rat, strain Fischer 344, females, in feed, site: any site (literature study), lesion: several types, types named in the paper, dosed 103 weeks, study length 104 weeks
  TD50: 4380 mg/kg/day
rat, strain Fischer 344, females, in feed, site: liver, lesion: hepatocellular adenoma + hepatocellular carcinoma + neoplastic nodule, dosed 103 weeks, study length 104 weeks
  TD50: 6580 mg/kg/day
rat, strain Fischer 344, females, in feed, site: liver, lesion: hepatocellular carcinoma + neoplastic nodule, dosed 103 weeks, study length 104 weeks
  TD50: 6580 mg/kg/day
rat, strain Fischer 344, females, in feed, site: liver, lesion: neoplastic nodule, dosed 103 weeks, study length 104 weeks
  TD50: 7740 mg/kg/day
rat, strain Fischer 344, males, in feed, site: any site (literature study), lesion: several types, types named in the paper, dosed 103 weeks, study length 104 weeks
  TD50: 2230 mg/kg/day
rat, strain Fischer 344, males, in feed, site: liver, lesion: hepatocellular adenoma + hepatocellular carcinoma + neoplastic nodule, dosed 103 weeks, study length 104 weeks
  TD50: 2220 mg/kg/day
rat, strain Fischer 344, males, in feed, site: liver, lesion: hepatocellular carcinoma + neoplastic nodule, dosed 103 weeks, study length 104 weeks
  TD50: 2220 mg/kg/day
rat, strain Fischer 344, males, in feed, site: liver, lesion: neoplastic nodule, dosed 103 weeks, study length 104 weeks
  TD50: 2130 mg/kg/day
rat, strain Fischer 344, males, in feed, site: pancreas, lesion: acinar-cell adenoma, dosed 103 weeks, study length 104 weeks
  TD50: 13900 mg/kg/day
rat, strain Sprague-Dawley Spartan, females, in feed, site: any site (literature study), lesion: several types, types named in the paper, dosed 105 weeks, study length 105 weeks
  TD50: 0.987 mg/kg/day (inactive)
rat, strain Sprague-Dawley Spartan, females, in feed, site: liver, lesion: hepatocellular tumor, dosed 105 weeks, study length 105 weeks
  carcinogen call: negative (inactive)
rat, strain Sprague-Dawley Spartan, males, in feed, site: any site (literature study), lesion: several types, types named in the paper, dosed 100 weeks, study length 100 weeks
  carcinogen call: negative (inactive)
rat, strain Sprague-Dawley Spartan, males, in feed, site: liver, lesion: hepatocellular tumor, dosed 100 weeks, study length 100 weeks
  carcinogen call: negative (inactive)

## CCOP(=O)=O.CCOP(=O)=O.CCOP(=O)=O.[Al+3]
rat, strain Charles River CD1, females, in feed, site: kidney/pelvis, lesion: several types, types named in the paper, dosed 104 weeks, study length 104 weeks
  TD50: 14600 mg/kg/day
rat, strain Charles River CD1, females, in feed, site: kidney/pelvis, lesion: transitional-cell carcinoma, dosed 104 weeks, study length 104 weeks
  TD50: 17800 mg/kg/day
rat, strain Charles River CD1, females, in feed, site: kidney/pelvis, lesion: transitional-cell papilloma, dosed 104 weeks, study length 104 weeks
  TD50: 80400 mg/kg/day
rat, strain Charles River CD1, females, in feed, site: urinary bladder, lesion: adenosquamous carcinoma, dosed 104 weeks, study length 104 weeks
  TD50: 110000 mg/kg/day
rat, strain Charles River CD1, females, in feed, site: urinary bladder, lesion: several types, types named in the paper, dosed 104 weeks, study length 104 weeks
  TD50: 17600 mg/kg/day
rat, strain Charles River CD1, females, in feed, site: urinary bladder, lesion: transitional-cell carcinoma, dosed 104 weeks, study length 104 weeks
  TD50: 23900 mg/kg/day
rat, strain Charles River CD1, females, in feed, site: urinary bladder, lesion: transitional-cell papilloma, dosed 104 weeks, study length 104 weeks
  TD50: 452000 mg/kg/day
rat, strain Charles River CD1, males, in feed, site: kidney/pelvis, lesion: several types, types named in the paper, dosed 104 weeks, study length 104 weeks
  TD50: 36400 mg/kg/day
rat, strain Charles River CD1, males, in feed, site: kidney/pelvis, lesion: transitional-cell papilloma, dosed 104 weeks, study length 104 weeks
  TD50: 31800 mg/kg/day
rat, strain Charles River CD1, males, in feed, site: urinary bladder, lesion: several types, types named in the paper, dosed 104 weeks, study length 104 weeks
  TD50: 3660 mg/kg/day
rat, strain Charles River CD1, males, in feed, site: urinary bladder, lesion: transitional-cell carcinoma, dosed 104 weeks, study length 104 weeks
  TD50: 5000 mg/kg/day
rat, strain Charles River CD1, males, in feed, site: urinary bladder, lesion: transitional-cell papilloma, dosed 104 weeks, study length 104 weeks
  TD50: 17200 mg/kg/day

## Nc1nnc(-c2ccc([N+](=O)[O-])o2)s1
rat, strain Sprague-Dawley, females, in feed, site: any site (literature study), lesion: several types, types named in the paper, dosed 45 weeks, study length 66 weeks
  TD50: 0.662 mg/kg/day
rat, strain Sprague-Dawley, females, in feed, site: forestomach, lesion: squamous-cell papilloma, dosed 45 weeks, study length 66 weeks
  TD50: 23.7 mg/kg/day
rat, strain Sprague-Dawley, females, in feed, site: kidney/pelvis, lesion: transitional-cell carcinoma, dosed 45 weeks, study length 66 weeks
  TD50: 73.4 mg/kg/day
rat, strain Sprague-Dawley, females, in feed, site: lung, lesion: alveolar-cell carcinoma, dosed 45 weeks, study length 66 weeks
  TD50: 73.4 mg/kg/day
rat, strain Sprague-Dawley, females, in feed, site: mammary gland, lesion: adenocarcinoma, dosed 45 weeks, study length 66 weeks
  TD50: 1.2 mg/kg/day
rat, strain Sprague-Dawley, females, in feed, site: mammary gland, lesion: several types, types named in the paper, dosed 45 weeks, study length 66 weeks
  TD50: 0.662 mg/kg/day

## [O]=[Cr][O][Cr]=[O]
rat, strain BD, both sexes, in feed, site: hypophysis, lesion: adenoma, dosed 85 weeks, study length 187 weeks
  carcinogen call: negative (inactive)
rat, strain BD, both sexes, in feed, site: mammary gland, lesion: carcinoma, dosed 85 weeks, study length 187 weeks
  carcinogen call: negative (inactive)
rat, strain BD, both sexes, in feed, site: mammary gland, lesion: fibroadenoma, dosed 85 weeks, study length 187 weeks
  TD50: 237000 mg/kg/day (inactive)

## CCOC(=O)N(CC)N=O
rat, strain Donryu, females, in drinking water, site: any site (literature study), lesion: several types, types named in the paper, dosed 51 weeks, study length 60 weeks
  TD50: 0.0784 mg/kg/day
rat, strain Donryu, females, in drinking water, site: duodenum, lesion: adenocarcinoma, dosed 51 weeks, study length 60 weeks
  TD50: 0.555 mg/kg/day
rat, strain Donryu, females, in drinking water, site: esophagus, lesion: papilloma, dosed 51 weeks, study length 60 weeks
  TD50: 0.473 mg/kg/day
rat, strain Donryu, females, in drinking water, site: esophagus, lesion: squamous-cell carcinoma, dosed 51 weeks, study length 60 weeks
  TD50: 0.54 mg/kg/day
rat, strain Donryu, females, in drinking water, site: forestomach, lesion: papilloma, dosed 51 weeks, study length 60 weeks
  TD50: 0.508 mg/kg/day
rat, strain Donryu, females, in drinking water, site: forestomach, lesion: squamous-cell carcinoma, dosed 51 weeks, study length 60 weeks
  TD50: 0.248 mg/kg/day
rat, strain Donryu, females, in drinking water, site: several sites, sites named in the paper, lesion: papilloma, dosed 51 weeks, study length 60 weeks
  TD50: 0.339 mg/kg/day
rat, strain Donryu, females, in drinking water, site: several sites, sites named in the paper, lesion: squamous-cell carcinoma, dosed 51 weeks, study length 60 weeks
  TD50: 0.164 mg/kg/day
rat, strain F344/DuCrj, females, in drinking water, site: any site (literature study), lesion: one or several types, types not named, dosed 97 weeks, study length 112 weeks
  TD50: 0.135 mg/kg/day
rat, strain F344/DuCrj, females, in drinking water, site: esophagus, lesion: papilloma, dosed 97 weeks, study length 112 weeks
  TD50: 0.514 mg/kg/day
rat, strain F344/DuCrj, females, in drinking water, site: esophagus, lesion: squamous-cell carcinoma, dosed 97 weeks, study length 112 weeks
  TD50: 0.139 mg/kg/day
rat, strain F344/DuCrj, females, in drinking water, site: forestomach, lesion: papilloma, dosed 97 weeks, study length 112 weeks
  TD50: 0.0796 mg/kg/day
rat, strain F344/DuCrj, females, in drinking water, site: forestomach, lesion: squamous-cell carcinoma, dosed 97 weeks, study length 112 weeks
  TD50: 0.213 mg/kg/day
rat, strain F344/DuCrj, females, in drinking water, site: oral cavity, lesion: papilloma, dosed 97 weeks, study length 112 weeks
  TD50: 3.02 mg/kg/day
rat, strain F344/DuCrj, females, in drinking water, site: oral cavity, lesion: squamous-cell carcinoma, dosed 97 weeks, study length 112 weeks
  TD50: 0.784 mg/kg/day
rat, strain F344/DuCrj, females, in drinking water, site: upper gastrointestinal tract, lesion: several types, types named in the paper, dosed 97 weeks, study length 112 weeks
  TD50: 0.0553 mg/kg/day
